Test results taken from BigSolDB 2.1.

O=C(O)c1cc2ccccc2cc1O
solubility (mole fraction)
Settings | in acetic acid | in acetone | in ethanol | in ethyl acetate | in isobutanol | in isopropanol | in methanol | in methyl acetate | in n-butanol | in n-propanol
293.15 K | 0.00556 | 0.0363 | 0.0218 | 0.0222 | 0.0147 | 0.0234 | 0.0131 | 0.0204 | 0.0268 | 0.0234
298.15 K | 0.00672 | 0.0389 | 0.0258 | 0.0251 | 0.0174 | 0.0267 | 0.0155 | 0.0225 | 0.03 | 0.0259
303.15 K | 0.00786 | 0.0423 | 0.0294 | 0.0278 | 0.0207 | 0.0306 | 0.018 | 0.025 | 0.0346 | 0.0288
308.15 K | 0.00913 | 0.0461 | 0.0331 | 0.0309 | 0.0236 | 0.035 | 0.0208 | 0.0286 | 0.0382 | 0.0323
313.15 K | 0.0105 | 0.0506 | 0.037 | 0.0338 | 0.0279 | 0.0406 | 0.0239 | 0.0318 | 0.0431 | 0.0372
318.15 K | 0.0121 | 0.0547 | 0.0415 | 0.0375 | 0.0316 | 0.0446 | 0.0271 | 0.0349 | 0.0466 | 0.0402
323.15 K | 0.014 | 0.0607 | 0.0469 | 0.0417 | 0.0377 | 0.0514 | 0.0313 | 0.0402 | 0.0529 | 0.0453
328.15 K | 0.0164 | 0.0661 | 0.0537 | 0.0468 | 0.0421 | 0.0565 | 0.0358 | 0.0447 | 0.0579 | 0.0513
333.15 K | 0.0192 | – | 0.0619 | 0.0533 | 0.0501 | 0.0649 | 0.0415 | – | 0.0663 | 0.0574
